The supplement of paper PMC10307832

Columns and labels:
Test in all cases: relative viability (nuclei count vs DMSO), 5 days (fraction); higher = more cells survive
Doramapimod + AZD7762 = compound: Cc1ccc(-n2nc(C(C)(C)C)cc2NC(=O)Nc2ccc(OCCN3CCOCC3)c3ccccc23)cc1 [Doramapimod] + NC(=O)Nc1cc(-c2cccc(F)c2)sc1C(=O)N[C@H]1CCCNC1 [AZD7762] (partner 0.2 µM)
Outline: (§1)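 Relative viability divides the nuclei count in treated wells by that in vehicle wells. Lung cancer cell lines were seeded in 1536-well plates, dosed by pin tool the next day, and fixed and stained after 5 days in one step with final 0.05% Triton X-100, 1% formaldehyde and 1 ug/ml Hoechst. Dosing was a single drug or a fixed anchor-drug dose plus five library-drug doses (not always all listed) in √10 steps, and values are medians of duplicate plates imaged at 4×.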

RAF265 + OSI-027 = compound: Cn1c(Nc2ccc(C(F)(F)F)cc2)nc2cc(Oc3ccnc(-c4ncc(C(F)(F)F)[nH]4)c3)ccc21 [RAF265] + COc1cccc2cc(-c3nc([C@H]4CC[C@H](C(=O)O)CC4)n4ncnc(N)c34)[nH]c12 [OSI-027] (partner 0.5 µM)
Outline: as §1

RAF265 + Phenformin = compound: Cn1c(Nc2ccc(C(F)(F)F)cc2)nc2cc(Oc3ccnc(-c4ncc(C(F)(F)F)[nH]4)c3)ccc21 [RAF265] + N=C(N)NC(=N)NCCc1ccccc1 [Phenformin] (partner 250 µM)
Outline: as §1

IPA-3 + OSI-027 = compound: C1=CC=C2C(=C1)C=CC(=C2SSC3=C(C=CC4=CC=CC=C43)O)O [IPA-3] + COc1cccc2cc(-c3nc([C@H]4CC[C@H](C(=O)O)CC4)n4ncnc(N)c34)[nH]c12 [OSI-027] (partner 0.5 µM)
Outline: as §1

Cell Line | relative viability (Doramapimod + AZD7762; first compound 0.02 µM) | relative viability (Doramapimod + AZD7762; first compound 0.06325 µM) | relative viability (Doramapimod + AZD7762; first compound 0.2 µM) | relative viability (Doramapimod + AZD7762; first compound 0.6325 µM) | relative viability (Doramapimod + AZD7762; first compound 2 µM) | relative viability (RAF265 + OSI-027; first compound 0.01 µM) | relative viability (RAF265 + OSI-027; first compound 0.03162 µM) | relative viability (RAF265 + OSI-027; first compound 0.1 µM) | relative viability (RAF265 + OSI-027; first compound 0.3162 µM) | relative viability (RAF265 + OSI-027; first compound 1 µM) | relative viability (RAF265 + Phenformin; first compound 0.01 µM) | relative viability (RAF265 + Phenformin; first compound 0.03162 µM) | relative viability (RAF265 + Phenformin; first compound 0.1 µM) | relative viability (RAF265 + Phenformin; first compound 0.3162 µM) | relative viability (RAF265 + Phenformin; first compound 1 µM) | relative viability (IPA-3 + OSI-027; first compound 0.2 µM) | relative viability (IPA-3 + OSI-027; first compound 0.6325 µM) | relative viability (IPA-3 + OSI-027; first compound 2 µM) | relative viability (IPA-3 + OSI-027; first compound 6.325 µM) | relative viability (IPA-3 + OSI-027; first compound 20 µM)
LCLC-103H | 0.908 | 0.78 | 0.795 | 0.978 | 0.762 | 0.466 | 0.439 | 0.464 | 0.443 | 0.308 | 0.333 | 0.346 | 0.305 | 0.319 | 0.285 | 0.442 | 0.444 | 0.463 | 0.486 | 0.505
NCI-H23 | 0.247 | 0.221 | 0.363 | 0.354 | 0.143 | 0.734 | 0.46 | 0.412 | 0.318 | 0.221 | 0.754 | 0.749 | 0.669 | 0.544 | 0.59 | 0.591 | 0.544 | 0.577 | 0.571 | 0.533
NCI-H1792 | 0.43 | 0.89 | 0.842 | 0.618 | 0.434 | 0.681 | 0.691 | 0.72 | 0.444 | 0.25 | 0.394 | 0.182 | 0.186 | 0.0818 | 0.0945 | 0.789 | 0.718 | 0.641 | 0.711 | 0.792
NCI-H596 | 1.27 | 1.08 | 1.13 | 1.31 | 1.1 | 0.982 | 0.751 | 0.784 | 0.563 | 0.554 | 0.869 | 0.833 | 0.691 | 0.689 | 0.489 | 0.761 | 0.681 | 0.757 | 0.668 | 0.865
NCI-H460 | 0.658 | 0.702 | 0.726 | 0.805 | 0.531 | 0.696 | 0.627 | 0.416 | 0.222 | 0.0945 | 0.529 | 0.463 | 0.483 | 0.399 | 0.394 | 1.2 | 0.615 | 0.658 | 0.671 | 0.78
HCC-366 | 0.387 | 0.271 | 0.33 | 0.34 | 0.213 | 1.04 | 0.939 | 0.834 | 0.165 | 0.107 | 0.594 | 0.552 | 0.596 | 0.435 | 0.45 | 0.978 | 0.709 | 0.802 | 0.93 | 1.07
NCI-H2085 | 1.07 | 0.978 | 1.01 | 1.08 | 1.02 | 0.948 | 0.68 | 0.841 | 0.552 | 0.83 | 0.858 | 0.683 | 0.742 | 0.642 | 0.644 | 0.982 | 0.665 | 0.742 | 0.9 | 0.817
NCI-H2342 | 0.416 | 0.513 | 0.49 | 0.486 | 0.485 | 0.598 | 0.722 | 0.598 | 0.525 | 0.514 | 0.502 | 0.617 | 0.679 | 0.468 | 0.549 | 0.663 | 0.619 | 0.68 | 0.757 | 0.743
PC-14 | 0.521 | 0.539 | 0.353 | 0.378 | 0.325 | 0.813 | 0.734 | 0.787 | – | 0.48 | 0.578 | 0.599 | 0.864 | – | 0.539 | 1.54 | 0.778 | 0.749 | 0.766 | 1.17
HOP-62 | 0.629 | 0.676 | 0.585 | 0.647 | 0.651 | 0.807 | 0.774 | 0.698 | 0.731 | 0.631 | 0.676 | 0.505 | 0.638 | 0.557 | 0.576 | 0.985 | 0.808 | 0.937 | 0.783 | 0.616
NCI-H2087 | 1.47 | 1.52 | 1.15 | 1.42 | 1.39 | 0.653 | 0.426 | 0.426 | 0.193 | 0.334 | 0.512 | 0.413 | 0.377 | 0.331 | 0.287 | 0.616 | 0.543 | 0.586 | 0.602 | 0.642
NCI-H1793 | 0.381 | 0.326 | 0.523 | 0.321 | 0.243 | 0.308 | 0.297 | 0.224 | – | 0.188 | 0.352 | 0.351 | 0.298 | – | 0.262 | 0.286 | 0.136 | 0.291 | 0.314 | 0.323
PC-3 [JPC-3] | 1.12 | 0.912 | 0.882 | 0.899 | 0.786 | 0.84 | 0.655 | 0.746 | – | 0.567 | 0.457 | 0.502 | 0.469 | – | 0.465 | 0.8 | 0.774 | 0.76 | 0.655 | 0.735
H3255 | 1.01 | 1 | 0.972 | 0.956 | 0.762 | 0.741 | 0.601 | 0.563 | – | 0.473 | 0.358 | 0.378 | 0.372 | – | 0.349 | 0.609 | 0.566 | 0.677 | 0.508 | 0.62
EMC-BAC-2 | 1.07 | 1.16 | 1.07 | 1.07 | 0.965 | 0.375 | 0.342 | 0.219 | 0.232 | 0.134 | 0.544 | 0.457 | 0.339 | 0.336 | 0.125 | 0.435 | 0.379 | 0.367 | 0.482 | 0.438
NCI-H522 | 0.879 | 0.744 | 0.708 | 0.736 | 0.9 | 0.79 | 0.741 | 0.655 | 0.541 | 0.628 | 0.677 | 0.648 | 0.655 | 0.33 | 0.569 | 0.719 | 0.619 | 0.751 | 0.764 | 0.846
CAL-12T | 0.675 | 0.765 | 0.696 | 0.596 | 0.535 | 0.633 | 0.45 | 0.313 | 0.281 | 0.327 | 0.581 | 0.521 | 0.426 | 0.516 | 0.363 | 0.884 | 0.63 | 0.676 | 0.475 | 0.656
NCI-H650 | 0.88 | 1.11 | 0.941 | 1.16 | 1.02 | 0.52 | 0.468 | 0.491 | 0.411 | 0.279 | 0.469 | 0.438 | 0.383 | 0.348 | 0.289 | 0.561 | 0.534 | 0.521 | 0.521 | 0.566
NCI-H1355 | 0.663 | 0.82 | 0.853 | 0.767 | 0.743 | 0.461 | 0.314 | 0.3 | 0.251 | 0.217 | 0.432 | 0.434 | 0.41 | 0.309 | 0.332 | 0.417 | 0.42 | 0.407 | 0.398 | 0.378
NCI-H838 | 0.869 | 0.962 | 0.958 | 0.902 | 0.92 | 0.403 | 0.491 | 0.455 | 0.341 | 0.304 | 0.733 | 0.606 | 0.521 | 0.499 | 0.517 | 0.468 | 0.437 | 0.478 | 0.429 | 0.453
LK-2 | 0.347 | 0.216 | 0.298 | 0.258 | 0.165 | 0.212 | 0.202 | 0.176 | 0.177 | 0.203 | 0.445 | 0.417 | 0.385 | 0.63 | 0.402 | 0.183 | 0.214 | 0.194 | 0.27 | 0.165
NCI-H322M | 0.564 | 0.593 | 0.52 | 0.484 | 0.687 | 0.589 | 0.519 | 0.41 | 0.358 | 0.186 | 0.759 | 0.815 | 0.44 | 0.366 | 0.269 | 0.597 | 0.521 | 0.569 | 0.597 | 0.61
NCI-H1395 | 0.392 | 0.39 | 0.355 | 0.443 | 0.349 | 0.72 | 0.571 | 0.638 | 0.537 | 0.487 | 0.438 | 0.444 | 0.423 | 0.409 | 0.387 | 0.641 | 0.705 | 0.547 | 0.621 | 0.692
NCI-H441 | 1.07 | 1.28 | 1.21 | 0.98 | 0.961 | 0.612 | 0.591 | 0.454 | 0.346 | 0.351 | 0.914 | 0.833 | 0.725 | 0.628 | 0.633 | 0.819 | 0.613 | 0.527 | 0.54 | 0.426
